Experimental data published in patent publication US20230011869A1 (Hoffmann-La Roche Inc., priority 2018, published 2023).
Structures can show the parent of a compound that is named as a salt.

System: Acinetobacter baumannii ATCC17978
Assay: Antimicrobial susceptibility testing: 90% growth inhibitory concentration (IC90) determination, Iso-Sensitest broth
Format: cell-based
Conditions: 90% growth inhibitory concentration, Acinetobacter baumannii ATCC17978, Iso-Sensitest broth, OD 600 nm over 16 h; read-out: ATCC17978 IC90
Summary of the method: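 A. baumannii ATCC17978 grown in Iso-Sensitest broth across 10 compound concentrations at 35±2 °C.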

Compound	IC90 [nM]
Cc1cc(Nc2nccn3c(-c4ccc(OCC#N)c(F)c4Cl)cnc23)ccc1C(=O)N1CCC(C(=O)N2CCN[C@@H](CO)C2)CC1 [Example 539, 2-[3-chloro-2-fluoro-4-[8-[4-[4-[(3R)-3-(hydroxymethyl)piperazine-1-carbonyl]piperidine-1-carbonyl]-3-methylanilino]imidazo[1,2-a]pyrazin-3-yl]phenoxy]acetonitrile; for-mic acid]	88
Cc1cc(Nc2nccn3c(-c4ccc(OCC#N)c(F)c4F)cnc23)ccc1C(=O)N1CCC(C(=O)N2CCN[C@H](CO)C2)CC1 [Example 542, 2-[2,3-difluoro-4-[8-[4-[4-[(3S)-3-(hydroxymethyl)piperazine-1-carbonyl]piperidine-1-carbonyl]-3-methylanilino]imidazo[1,2-a]pyrazin-3-yl]phenoxy]acetonitrile; for-mic acid]	98
Cc1cc(Nc2nccn3c(-c4ccc(OCC#N)c(F)c4F)cnc23)ccc1C(=O)N1CCC(C(=O)N2CCN[C@@H](CO)C2)CC1 [Example 543, 2-[2,3-difluoro-4-[8-[4-[4-[(3R)-3-(hydroxymethyl)piperazine-1-carbonyl]piperidine-1-carbonyl]-3-methylanilino]imidazo[1,2-a]pyrazin-3-yl]phenoxy]acetonitrile; for-mic acid]	99
COc1ccc(-c2cnc3c(Nc4ccc(C(=O)N5CCC(C(=O)N6CCN[C@@H](C(=O)O)C6)CC5)c(C)c4)nccn23)cc1F [Example 558, (R)-4-(1-(4-((3-(3-fluoro-4-methoxyphenyl)imidazo[1,2-a]pyrazin-8-yl)amino)-2-methylbenzoyl)piperidine-4-carbonyl)piperazine-2-carboxylic acid hydrochloride]	922

Same assay, conditions: Acinetobacter baumannii, ATCC17978, 16 h, read-out: ATCC17978 IC90, 90% growth inhibitory concentration, Acinetobacter baumannii ATCC17978, Iso-Sensitest broth, OD 600 nm over 16 h

Compound	IC90 [nM]
Cc1cc(Nc2nccn3c(-c4ccc(OC(F)F)cc4)cnc23)ccc1C(=O)N1CCN(C(=O)[C@@H](N)CC(N)=O)CC1 [Example 528, (3S)-3-amino-4-[4-[4-[[3-[4-(difluoromethoxy)phenyl]imi-dazo[1,2-a]pyrazin-8-yl]amino]-2-methylbenzoyl]piperazin-1-yl]-4-oxobutanamide; hydrochloride]	610
Cc1cc(Nc2nccn3c(-c4ccc(OC(F)F)cc4)cnc23)ccc1C(=O)N1CCN(C(=O)[C@H]2C[C@H](O)CN2)CC1 [Example 529, [4-[[3-[4-(difluoromethoxy)phenyl]imi-dazo[1,2-a]pyrazin-8-yl]amino]-2-methylphenyl]-[4-[(2R,4S)-4-hydroxypyrrolidine-2-carbonyl]piperazin-1-yl]methanone; hydrochloride]	690
COc1ccc(-c2cnc3c(Nc4ccc(C(=O)N5CCN(C(=O)[C@H](CCN)NC(=O)CC[C@H](N)C(=O)O)CC5)c(C)c4)nccn23)c(F)c1F [Example 532, (2S)-2-amino-5-[[(2S)-4-amino-1-[4-[4-[[3-(2,3-difluoro-4-methoxyphenyl)imidazo[1,2-a]pyrazin-8-yl]amino]-2-methylbenzoyl]piperazin-1-yl]-1-oxobutan-2-yl]amino]-5-oxopentanoic acid; hydrochloride]	1200
COc1ccc(-c2cnc3c(Nc4ccc(C(=O)N5CCN(C(=O)[C@H](CCCN)NC(=O)CC[C@H](N)C(=O)O)CC5)c(C)c4)nccn23)c(F)c1F [Example 533, (2S)-2-amino-5-[[(2S)-5-amino-1-[4-[4-[[3-(2,3-difluoro-4-methoxyphenyl)imidazo[1,2-a]pyrazin-8-yl]amino]-2-methylbenzoyl]piperazin-1-yl]-1-oxopentan-2-yl]amino]-5-oxopentanoic acid; hydrochloride]	1500
COc1ccc(-c2cnc3c(Nc4ccc(C(=O)N5CCN(C(=O)[C@H](CCCCN)NC(=O)[C@@H](N)CCC(=O)O)CC5)c(C)c4)nccn23)c(F)c1F [Example 537, (4S)-4-amino-5-[[(2S)-6-amino-1-[4-[4-[[3-(2,3-difluoro-4-methoxyphenyl)imidazo[1,2-a]pyrazin-8-yl]amino]-2-methylbenzoyl]piperazin-1-yl]-1-oxohexan-2-yl]amino]-5-oxopentanoic acid; hydrochloride]	4400
CCc1cc(Nc2nccn3c(-c4ccc(OCC#N)c(F)c4F)cnc23)ccc1C(=O)N1CCC(C(=O)N2CCN[C@@H](CO)C2)CC1 [Example 540, 2-[4-[8-[3-ethyl-4-[4-[(3R)-3-(hydroxymethyl)piperazine-1-carbonyl]piperidine-1-carbonyl]anilino]imidazo[1,2-a]pyrazin-3-yl]-2,3-difluorophenoxy]acetonitrile; 2,2,2-trifluoroacetic acid]	90
CCc1cc(Nc2nccn3c(-c4ccc(OCC#N)c(F)c4F)cnc23)ccc1C(=O)N1CCC(C(=O)N2CCN[C@H](CO)C2)CC1 [Example 541, 2-[4-[8-[3-ethyl-4-[4-[(3S)-3-(hydroxymethyl)piperazine-1-carbonyl]piperidine-1-carbonyl]anilino]imidazo[1,2-a]pyrazin-3-yl]-2,3-difluorophenoxy]acetonitrile; 2,2,2-trifluoroacetic acid]	96
COc1ccc(-c2cnc3c(Nc4ccc(C(=O)N5CCC(C(=O)N6CCN[C@@H](CO)C6)CC5)c(C)c4)nccn23)c(F)c1F [Example 544, [4-[[3-(2,3-difluoro-4-methoxyphenyl)imidazo[1,2-a]pyrazin-8-yl]amino]-2-methylphenyl]-[4-[(3R)-3-(hydroxymethyl)piperazine-1-carbonyl]piperidin-1-yl]methanone; formic acid]	100
Cc1cc(Nc2nccn3c(-c4ccc(OC(F)F)cc4)cnc23)ccc1C(=O)N1CCC(C(=O)NC[C@@H]2CNC(=O)O2)CC1 [Example 548, (R)-1-(4-((3-(4-(difluoromethoxy)phenyl)imidazo [1,2-a]pyrazin-8-yl)amino)-2-methylbenzoyl)-N-((2-oxooxazolidin-5-yl)methyl)piperidine-4-carboxamide]	203
COc1ccc(-c2cnc3c(Nc4ccc(C(=O)N5CCN(C(=O)[C@@H]6C[C@@H](OC(=O)[C@@H](N)[C@@H](C)O)CN6)CC5)c(C)c4)nccn23)c(F)c1F [Example 549, [(3R,5S)-5-[4-[4-[[3-(2,3-difluoro-4-methoxy-phenyl)imidazo[1,2-a]pyrazin-8-yl]amino]-2-methyl-benzoyl]piperazine-1-carbonyl]pyrrolidin-3-yl] (2S,3R)-2-amino-3-hydroxy-butanoate formate]	75
COc1ccc(-c2cnc3c(Nc4ccc(C(=O)N5CCN(C(=O)[C@@H]6C[C@@H](OC(=O)[C@@H](N)CCCNC(=N)N)CN6)CC5)c(C)c4)nccn23)c(F)c1F [Example 550, [(3R,5S)-5-[4-[4-[[3-(2,3-difluoro-4-methoxy-phenyl)imidazo[1,2-a]pyrazin-8-yl]amino]-2-methyl-benzoyl]piperazine-1-carbonyl]pyrrolidin-3-yl] 2-amino-5-guanidino-pentanoate formate]	153
COc1ccc(-c2cnc3c(Nc4ccc(C(=O)N5CCN(C(=O)[C@@H]6C[C@@H](OC(=O)[C@@H]7CCCN7)CN6)CC5)c(C)c4)nccn23)c(F)c1F [Example 551, [(3R,5S)-5-[4-[4-[[3-(2,3-difluoro-4-methoxy-phenyl)imidazo[1,2-a]pyrazin-8-yl]amino]-2-methyl-benzoyl]piperazine-1-carbonyl]pyrrolidin-3-yl] pyrrolidine-2-carboxylate formate]	196
COc1ccc(-c2cnc3c(Nc4ccc(C(=O)N5CCN(C(=O)[C@@H]6C[C@@H](OC(=O)[C@@H](N)C(C)C)CN6)CC5)c(C)c4)nccn23)c(F)c1F [Example 552, [(3R,5S)-5-[4-[4-[[3-(2,3-difluoro-4-methoxy-phenyl)imidazo[1,2-a]pyrazin-8-yl]amino]-2-methyl-benzoyl]piperazine-1-carbonyl]pyrrolidin-3-yl] (2S)-2-amino-3-methyl-butanoate]	186
Cc1cc(Nc2nccn3c(-c4ccc(OC(F)F)cc4)cnc23)ccc1C(=O)N1CCC(C(=O)NC[C@H](O)CN)CC1 [Example 553, (R)-N-(3-amino-2-hydroxypropyl)-1-(4-((3-(4-(difluoromethoxy)phenyl)imidazo [1,2-a]pyrazin-8-yl)amino)-2-methylbenzoyl)piperidine-4-carboxamide formate]	227
Cc1cc(Nc2nccn3c(-c4ccc(OC(F)F)cc4)cnc23)ccc1C(=O)N1CCC(C(=O)NC[C@@H](O)CN)CC1 [Example 554, (S)-N-(3-amino-2-hydroxypropyl)-1-(4-((3-(4-(difluoromethoxy)phenyl)imidazo [1,2-a]pyrazin-8-yl)amino)-2-methylbenzoyl)piperidine-4-carboxamide formate]	344
CCc1cc(Nc2nccn3c(-c4ccc(OC(C)C#N)c(F)c4F)cnc23)ccc1C(=O)N1CCN(CCN(C)C)CC1 (stereo not shown) [Example 557, 2-(4-(8-((4-(4-(2-(dimethylamino)ethyl)piperazine-1-carbonyl)-3-ethylphenyl)amino)imidazo[1,2-a]pyrazin-3-yl)-2,3-difluorophenoxy)propanenitrile]	694
Cc1cc(Nc2nccn3c(-c4ccc(O[C@H](C)C#N)c(F)c4F)cnc23)ccc1C(=O)N1CCN(C(=O)[C@@H]2C[C@@H](O)CN2)CC1 [Example 559, (2R)-2-[2,3-difluoro-4-[8-[4-[4-[(2S,4R)-4-hydroxypyrrolidine-2-carbonyl]piperazine-1-carbonyl]-3-methyl-anilino]imidazo[1,2-a]pyrazin-3-yl]phenoxy]propanenitrile formate]	699
Cc1cc(Nc2nccn3c(-c4ccc(O[C@H](C)C#N)c(F)c4F)cnc23)ccc1C(=O)N1CCN(C(=O)C2(O)CCNCC2)CC1 [Example 560, (2R)-2-[2,3-difluoro-4-[8-[4-[4-(4-hydroxypiperidine-4-carbonyl)piperazine-1-carbonyl]-3-methyl-anilino]imidazo[1,2-a]pyrazin-3-yl]phenoxy]propanenitrile formate]	746
